These results are taken from US7427617B2, “Morpoline-bridged indazole derivatives” (Bayer Healthcare AG, priority 2002, dated 2008).

The experiment deals with primary cortical neurons. Put plainly: Increase of cGMP in primary cortical neurons. The experiment is classed as cell-based. To be noted: 0.1 μM test substance; rat primary cortical neurons; IBMX 100 μM; 20 min at 37° C.; cGMP by EIA. As to the method: Increase of cGMP in Primary Cortical Neurons
Rat embryos (embryonic day 17-19) are decapitated, and the cerebrum is removed and incubated with 5 ml of papain solution and 250 μl of DNAse (papain kit from Cell-System) at 37° C. for 30 min, homogenized using a Pasteur pipette and centrifuged at 1200 rpm for 5 min. The supernatant is removed, the cell pellet resuspended (in 2.7 ml of EBSS [Earl's balanced salt solution], 300 μl of ovomucoid/albumin (conc.) solution, 150 μl of DNAse; papain kit from Cell-System), layered over 5 ml of ovomucoid/albumin solution and centrifuged at 700 rpm for 6 min. The supernatant is removed, the cells are resuspended in cultivation medium (Gibco neurobasal medium, B27 Supplement 50×1 ml/100 ml, 2 mM L-glutamine), counted (approx. 150 000 cells/well) and plated out on poly-D-lysine-coated 96-well plates (Costar) with 200 μl/well. After 6-7 days at 37° C. (5% CO2), the neurons are freed of culture medium and washed once with assay buffer (154 mM NaCl, 5.6 mM KCl, 2.3 mM CaCl22H2O, 1 mM MgCl2, 5.6 mM glucose, 8.6 mM HEPES (4-(2-hydroxyethyl)piperazine-1-ethanesulfonic acid), pH=7.4). […] After incubation at 37° C. for 20 min, the assay buffer is replaced by 200 μl/well of lysis buffer (cGMP EIA RPN 226 from Amersham Pharmacia Biotech), and the cGMP content of the lystates is determined using an EIA assay kit.

For `Nc1nc(-c2nn(Cc3ccccc3F)c3ccccc23)ncc1N1C2CCCC1COC2` [Example 1, 2-[1-(2-Fluorobenzyl)-1H-indazol-3-yl]-5-(3-oxa-9-azabicyclo[3.3.1]non-9-yl)-4pyrimidinylamine], the “increase in cGMP” value is on record as “statistically significant increase in cGMP”.
